These results are taken from patent US5461154A, “Intermediate and process for making” (Eli Lilly and Company, priority 1994, dated 1995).

The assay deals with T1, HIV-1 protease (Human immunodeficiency virus type 1 group M subtype B, UniProt P04585).
T1 construct: Purified HIV-1 protease was obtained as described above; made in house; host or cells: E. coli K12 L507/pHP10D (NRRL B-18560)
The experiment in a line: biochemical. As to the method: A culture of E. coli K12 L507/pHP10D was grown to mid-log phase at 32° C. in LB media containing 12.5 μg/mL tetracycline. The cultivation temperature was quickly elevated to 40° C. to induce gene expression, and the cells were allowed to grow for 2.5 hours at this temperature before the culture was quickly chilled on ice. The cells were centrifuged and the cell pellet was resuspended in 20 mL of 50 mmol MES buffer (pH 6.0) containing 1 mmol EDTA, 1 mmol DTT, 1 mmol PMSF and 10% glycerol ("Buffer A"). Cells were lysed by sonication using a Fischer Model 300 Dismembrator and a microtip probe. Following centrifugation at 27,000×g, the supernatant was diluted to a total volume of 60 mL with Buffer A and loaded onto a 2.0×19 cm QAE-Sepharose column (1 mL/min, 4° C.), that had been equilibrated in Buffer A. The column was washed isocratically for 180 min and then eluted with a gradient eluent of 0-1.0M aqueous sodium chloride in Buffer A over 120 min. Enzymatic activity was measured by HPLC using the synthetic peptide Ser-Gln-Asn-Tyr-Pro-Ile-Val as described in Margolin et al., Biochem. Biophys. Res. Common., 167, 554-560 (1990); the production of the p1 peptide (Ser-Gln-Asn-Tyr) was measured.
The active fractions were combined, adjusted to […] 1.2M in ammonium sulfate, and applied to a 2.0×18 cm hexyl agarose column that had been equilibrated in Buffer A containing 1.2M ammonium sulfate. The sample was loaded at a flow rate of 1 mL/min at 4° C., washed with the equilibration buffer for 240 min (1 mL/min) and then eluted using a reverse linear gradient of 1.2-0M ammonium sulfate in Buffer A for 120 min at the same flow rate. The column was then washed isocratically in Buffer A for 120 min.
The active fractions were combined, concentrated to 10 mL using an Amicon stirred cell with a YM-10 membrane and then applied to a MonoS cation exchange column (1.0×10 cm) that had been equilibrated in Buffer A. The sample was loaded at a flow rate of 1 mL/min at 25° C. After washing isocratically for 30 min, the protease was eluted using a linear gradient of 0-0.45M aqueous sodium chloride in Buffer A over 40 min. The column was washed isocratically in Buffer A containing 0.45M aqueous sodium chloride for 30 minutes.
The active fractions were combined and concentrated to 200 μL using an Amicon stirred cell and a YM-10 membrane and then the protease was applied to a Superose 6 size exclusion column equilibrated in Buffer A containing 0.1M aqueous sodium chloride.
E. Fluorescence HIV-1 Protease Inhibitor Assay
The following buffers and solutions are used in the Fluorescence HIV-1 Protease Inhibitor Assay:
To each well of a round bottom, 96-well plate is added 20 μL of the Enzyme Solution followed by 10 μL of the compound to be evaluated in a 20% aqueous dimethylsulfoxide solution. Purified HIV-1 protease was obtained as described above. The resulting solution is incubated for one hour at room temperature and then 20 μL of a solution containing the substrate, prepared above, in MES-ALB buffer (1.5 μL/mL) is added to each well. The solutions are then incubated for 16 hours at room temperature and then each well is diluted with 150 μL of MES-ALB buffer.
To each well of a second round bottom, 96-well Pandex plate is added 25 uL of the Avidin Coated Beads Solution. Then, to each well is added 25 μL of the diluted incubation solutions, prepared above. The solutions are mixed thoroughly and the plates are loaded into a Pandex® machine, washed, evacuated and read. Sample detection was performed by excitation at 485 nm, reading the resulting epifluorescence at 535 nm.

Setting [1] is: read-out: Fluorescence Assay IC50 (converted).

Each structure is given as a SMILES string. Where two headings read alike, the source gives them in different places.

Compound `Cc1c(O)cccc1C(=O)N[C@@H](Cc1ccccc1)[C@H](O)CN1CCC[C@H]1C(=O)NC(C)(C)C` [Example 4, [2S-(2R*,2'S*,3'R*)]-1-[2'-Hydroxy-3'-phenylmethyl-4'-aza-5'-oxo-5'-(2"-methyl-3"-hydroxyphenyl)pentyl]pyrrolidine-2-N-t-butylcarboxamide] had an IC50 of 3.05 µM.

Take `Cc1c(O)cccc1C(=O)N[C@@H](Cc1ccccc1)[C@H](O)CN1CCCC[C@H]1C(=O)NC(C)(C)C` [Example 6, [2S-(2R*,2'S*,3'R*)]-1-[2'-Hydroxy-3'-phenylmethyl-4'-aza-5'-oxo-5'-(2"-methyl-3"-hydroxyphenyl)pentyl]piperidine-2-N-t-butylcarboxamide]: the half-inhibitory concentration (IC50) is 1.07 µM.

Consider `CC(C)(C)NC(=O)[C@@H]1C[C@@H]2CCCC[C@@H]2CN1C[C@@H](O)[C@H](Cc1ccccc1)NC(=O)c1cccc(Cl)c1Cl` [Example 14, [3S-(3R*,4aR*,8aR*,2'S*,3R*)]-2-[2'-Hydroxy-3'-phenylmethyl-4'-aza-5'-oxo-5'-(2",3"-dichlorophenyl)pentyl]decahydroisoquinoline-3-N-t-butylcarboxamide], for which, under setting [1], the half-maximal inhibitory concentration (IC50) was 0.176 µM.

On to `Cc1c(C(=O)N[C@@H](Cc2ccccc2)[C@H](O)CN2C[C@H]3CCCC[C@H]3C[C@H]2C(=O)NC(C)(C)C)cc[nH]c1=O` [Example 16, [3S-(3R*,4aR*,8aR*,2'S*,3'R*)]-2-[2'-Hydroxy-3-phenylmethyl-4'-aza-5'-oxo-5'-(2"-oxo-3"-methyl-pyrid-4"-yl)pentyl]decahydroisoquinoline-3-N-t-butylcarboxamide], for which the IC50 under setting [1] was 0.613 µM.

As for `CC(C)(C)NC(=O)[C@@H]1C[C@@H]2CCCC[C@@H]2CN1C[C@@H](O)[C@H](Cc1ccccc1)NC(=O)c1c(Cl)ccc(O)c1Cl` [Example 17, [3S-(3R*,4aR*,8aR*,2'S*,3'R*)]-2-[2'-Hydroxy-3'-phenylmethyl-4'-aza-5'-oxo-5'-(2",6"-dichloro-3"-hydroxyphenyl)pentyl]decahydroisoquinoline-3-N-t-butylcarboxamide], the IC50 under setting [1] is 0.455 µM.

On to `CC(C)(C)NC(=O)[C@@H]1CN(Cc2cccnc2)CCN1C[C@@H](O)[C@H](CSc1ccccc1)NC(=O)c1cccc2ncccc12` [Example 34, [2S-(2R*,2'S*,3'S*)]-1-[2'-Hydroxy-3'-phenylthiomethyl-4'-aza-5'-oxo-5'-(quinolin-5"-yl)pentyl]-4-(pyrid-3'"-ylmethyl)piperazine-2-N-t-butylcarboxamide], for which the IC50 under setting [1] is 0.00718 µM.

Turning to `Cc1cnccc1C(=O)N[C@@H](CSc1ccccc1)[C@H](O)CN1CCN(Cc2cccnc2)C[C@H]1C(=O)NC(C)(C)C` [Example 35, [2S-(2R*,2'S*,3'S*)]-1-[2'-Hydroxy-3'-phenylthiomethyl-4'-aza-5'-oxo-5'-[3"-methyl-pyrid-4"-yl)]pentyl]-4-(pyrid-3'"-ylmethyl)piperazine-2-N-t-butylcarboxamide], under setting [1], the IC50 was 0.0537 µM.

Consider `Cc1c(NS(C)(=O)=O)cccc1C(=O)N[C@@H](Cc1ccccc1)[C@H](O)CN1C[C@H]2CCCC[C@H]2C[C@H]1C(=O)NC(C)(C)C` [Example 36, [3S-(3R*,4aR*,8aR*,2'S*,3'S*)]-2-[2'-Hydroxy-3'-phenylmethyl-4'-aza-5'-oxo-5'-[2"-methyl-3"-N-(methylsulfonyl)amino-phenyl)]pentyl]decahydroisoquinoline-3-N-t-butylcarboxamide], for which, under “read-out: Fluorescence Assay IC50, […], room temperature, 16 hours with substrate”, the IC50 was 0.101 µM.

`Cc1ccc2ncccc2c1C(=O)N[C@@H](CSc1ccccc1)[C@H](O)CN1C[C@H]2CCCC[C@H]2C[C@H]1C(=O)NC(C)(C)C` [Example 38]: the IC50 under setting [1] was 0.0252 µM.
